What all share (assay): PPi release assay (pyrophosphatase, BIOMOL Green, […] nm)
What all share (format): biochemical

Assay [1] deals with T1, AlaRS (AlaRS^WT) (Methylomonas sp. DH-1, UniProt Z9JP01Z3Z1, V207A/L222M, form not given).
T1 construct: full-length, pET-28b(+) (BamHI/NotI), Ni-NTA purified from E. coli Rosetta-gami2(DE3)pLysS; tag removal not mentioned
Conditions: 8 uM tRNA-Ala, 200 uM ATP, 40 mM MgCl2, 1 mM DTT, pH 7.5, 37 °C; read-out: Alanine / K m.

Assay [2] deals with T2, AlaRS (AlaRS^WT) (Methylomonas sp. DH-1, UniProt Z9JP01Z3Z1, L219A, form not given).
T2 construct: full-length, pET-28b(+) (BamHI/NotI), Ni-NTA purified from E. coli Rosetta-gami2(DE3)pLysS; tag removal not mentioned
To be noted: 8 uM tRNA-Ala, 200 uM ATP, 40 mM MgCl2, 1 mM DTT, pH 7.5, 37 °C; read-out: Alanine / K m.

The target in another assay is T3, AlaRS429 (Methylomonas sp. DH-1, UniProt Z9JP01Z3Z1, L219M, form not given).
T3 construct: residues 1-429 (aminoacylation domain, no editing domain), non-cleavable C-terminal His6 tag, synthetic gene in pET28b(+), E. coli BL21(DE3)
Conditions: 8 uM tRNA-Ala, 200 uM ATP, 40 mM MgCl2, 1 mM DTT, pH 7.5, 37 °C; read-out: Alanine / K m.

The target in assay [3] is T4, AlaRS (AlaRS^WT) (Methylomonas sp. DH-1, UniProt Z9JP01Z3Z1, L219M, form not given).
T4 construct: full-length, pET-28b(+) (BamHI/NotI), Ni-NTA purified from E. coli Rosetta-gami2(DE3)pLysS; tag removal not mentioned
To be noted: 8 uM tRNA-Ala, 200 uM ATP, 40 mM MgCl2, 1 mM DTT, pH 7.5, 37 °C.

In assay [4] the target is T5, AlaRS (AlaRS^WT) (Methylomonas sp. DH-1, UniProt Z9JP01Z3Z1, L219F, form not given).
T5 construct: full-length, pET-28b(+) (BamHI/NotI), Ni-NTA purified from E. coli Rosetta-gami2(DE3)pLysS; tag removal not mentioned
Conditions: 8 uM tRNA-Ala, 200 uM ATP, 40 mM MgCl2, 1 mM DTT, pH 7.5, 37 °C; read-out: Alanine / K m.

These results are taken from publication PMC12143591, “Unlocking the serine mischarging paradox and inhibiting lactyltransferase activity of AlaRS by a single-point mutation” (Nucleic Acids Research, 2025).

Molecules are shown by their SMILES. Read-outs that look alike come from different tables or passages of the source.

For `C[C@H](N)C(=O)O` [Ala], the Km on AlaRS (AlaRS^WT) [1] turned out to be 145 ± 39 µM; on AlaRS (AlaRS^WT) [2], 9 ± 6 µM; at AlaRS429, 3 ± 1 µM; at AlaRS (AlaRS^WT) [3] (read-out: Alanine / K m), 9 ± 1 µM; at AlaRS (AlaRS^WT) [4], 7 ± 3 µM.
Turning to `NCC(=O)O` [Gly], the Km on AlaRS (AlaRS^WT) [3] (read-out: Glycine / K m) was 7910 ± 3280 µM.
